Values quoted from earlier work, collected in US8334403B1, “C-lysine conjugates as pH-controlled, light-activated reagents for double stranded DNA cleavage and associated methods” (Florida State University Research Foundation, Inc., priority 2005, dated 2012).
Like-named read-outs stand apart in the source and are kept apart here.

Test system: DNA
Conditions: cited from earlier work

Compound: COc1cc(CCN)c2c(c1OC)SS[S+]2[O-] (centres unmarked) [Varacin C]
- extent of single stranded (ss) DNA cleavage (pH 5.5, 5 μM antibiotic loading): 47%
- extent of single stranded (ss) DNA cleavage (pH 7): 23%
